Measurements published in ChEMBL document CHEMBL1121780, “Synthesis and antiarrhythmic activity of new benzofuran derivatives” (J Med Chem, 1981).
Where “and” joins values, the source holds several entries; their conditions need not be identical. Equal entries are not always repeated. Calls of active or inactive are those of the source. The calls are words filed in the database; no cut-off is given here.

Key:
[1] = test system: Canis familiaris; assay: Activity against ouabain-induced ventricular arrhythmia was measured as percent of sinus rhythm recovery at dose of 2 mg/kg iv; assay type: functional, Canis lupus familiaris, Cardiac ventricle
[2] = test system: Canis familiaris; assay: (§1) Activity against harris coronary ligation induced ventricular arrhythmia was measured as percent of final sinus complexes after dose 12.5 mg/kg, po; assay type: functional, Canis lupus familiaris, Cardiac ventricle
[3] = test system: Canis familiaris; assay: Activity against harris coronary ligation induced ventricular arrhythmia was measured as percent of final sinus complexes after dose 5 mg/kg iv; assay type: functional, Canis lupus familiaris, Cardiac ventricle
[4] = species on record: Canis familiaris; assay: Duration for the sinus rhythm recovery was measured; assay type: functional, Canis lupus familiaris
[5] = test system: Canis familiaris; assay: Activity against harris coronary ligation induced ventricaulr arrhythmia was measured as percent of initial sinus complexes after dose 12.5 mg/kg po; assay type: functional, Canis lupus familiaris
[6] = test system: Canis familiaris; assay: Activity against harris coronary ligation induced ventricular arrhythmia was measured as percent of final sinus complexes after dose 20 mg/kg, po; assay type: functional, Canis lupus familiaris, Cardiac ventricle
[7] = test system: Canis familiaris; assay: as §1; assay type: functional, Canis lupus familiaris, Cardiac ventricle; remark: listed apart in the source
[8] = test system: Canis familiaris; assay: Activity against harris coronary ligation induced ventricular arrhythmia was measured as percent of final sinus complexes after dose 2 mg/kg, po; assay type: functional, Canis lupus familiaris, Cardiac ventricle
[9] = Toxicity estimated in mouse as LD50 by intravenous administration; assay type: organism-based; conditions: in vivo
[10] = test system: Canis familiaris; assay: Activity against harris coronary ligation induced ventricular arrhythmia was measured as percent of initial sinus complexes after dose 5 mg/kg iv; assay type: functional, Canis lupus familiaris, Cardiac ventricle
[11] = test system: Canis familiaris; assay: Activity against harris coronary ligation induced ventricular arrhythmia was measured as percent of final sinus complexes after dose 2 mg/kg iv; assay type: functional, Canis lupus familiaris, Cardiac ventricle
[12] = test system: Canis familiaris; assay: Activity against harris coronary ligation induced ventricular arrhythmia was measured as percent of initial sinus complexes after dose 2 mg/kg, iv; assay type: functional, Canis lupus familiaris, Cardiac ventricle
[13] = test system: Canis familiaris; assay: Activity against harris coronary ligation induced ventricular arrhythmia was measured as percent of initial sinus complexes after dose 2 mg/kg po; assay type: functional, Canis lupus familiaris, Cardiac ventricle
[14] = test system: Canis familiaris; assay: Activity against ouabain-induced ventricular arrhythmia was measured as percent of sinus rhythm recovery at dose of 10 mg/kg iv; assay type: functional, Canis lupus familiaris, Cardiac ventricle
[15] = Toxicity was estimated in mouse as LD50 by intravenous administration; LD50 = 200(30%); assay type: organism-based; conditions: in vivo
[16] = test system: Canis familiaris; assay: Activity against ouabain-induced ventricular arrhythmia was measured as percent of sinus rhythm recovery at dose of 8 mg/kg iv; assay type: functional, Canis lupus familiaris, Cardiac ventricle
[17] = test system: Canis familiaris; assay: Activity against ouabain-induced ventricular arrhythmia was measured as percent of sinus rhythm recovery at dose of 5 mg/kg iv; assay type: functional, Canis lupus familiaris, Cardiac ventricle
[18] = test system: Canis familiaris; assay: Activity against harris coronary ligation induced ventricular arrhythmia was measured as percent of initial sinus complexes after dose 25 mg/kg po; assay type: functional, Canis lupus familiaris, Cardiac ventricle
[19] = test system: Canis familiaris; assay: Activity against harris coronary ligation induced ventricular arrhythmia was measured as percent of final sinus complexes after dose 25 mg/kg po; assay type: functional, Canis lupus familiaris, Cardiac ventricle
[20] = species on record: Canis familiaris; assay: Duration for the antiarrhythmic activity was measured; assay type: functional, Canis lupus familiaris, Heart
[21] = test system: Canis familiaris; assay: Activity against harris coronary ligation induced ventricular arrhythmia was measured as percent of final sinus complexes after dose 10 mg/kg iv; assay type: functional, Canis lupus familiaris, Cardiac ventricle
[22] = test system: Canis familiaris; assay: Activity against harris coronary ligation induced ventricular arrhythmia was measured as percent of initial sinus complexes after dose mg/kg, iv=25; assay type: functional, Canis lupus familiaris, Cardiac ventricle
[23] = test system: Canis familiaris; assay: Activity against harris coronary ligation induced ventricular arrhythmia was measured as percent of initial sinus complexes after dose 10 mg/kg iv; assay type: functional, Canis lupus familiaris, Cardiac ventricle
[24] = test system: Canis familiaris; assay: Activity against harris coronary ligation induced ventricular arrhythmia was measured as percent of initial sinus complexes after dose mg/kg, iv=12.5; assay type: functional, Canis lupus familiaris, Cardiac ventricle
[25] = test system: Canis familiaris; assay: Activity against harris coronary ligation induced ventricular arrhythmia was measured as percent of final sinus complexes after dose mg/kg, iv; assay type: functional, Canis lupus familiaris, Cardiac ventricle
[26] = test system: Canis familiaris; assay: Activity against harris coronary ligation induced ventricular arrhythmia was measured as percent of initial sinus complexes after dose 2 mg/kg iv; assay type: organism-based, Canis lupus familiaris, Cardiac ventricle; design: dose 2 mg/kg, route intravenous; conditions: dog, in vivo
[27] = test system: Canis familiaris; assay: Activity against ouabain-induced ventricular arrhythmia was measured as percent of sinus rhythm recovery at dose of 1 mg/kg iv; assay type: functional, Canis lupus familiaris, Cardiac ventricle
[28] = test system: Canis familiaris; assay: Activity against harris coronary ligation induced ventricular arrhythmia was measured as percent of final sinus complexes after dose 2 mg/kg, iv; assay type: functional, Canis lupus familiaris, Cardiac ventricle
[29] = species on record: Canis familiaris; assay: Duration for the antiarrhythmic activity was measured; 10-60; assay type: functional, Canis lupus familiaris, Heart
[30] = test system: Canis familiaris; assay: Activity against ouabain-induced ventricular arrhythmia was measured as percent of sinus rhythm recovery at dose of 6 mg/kg iv; assay type: functional, Canis lupus familiaris, Cardiac ventricle
[31] = test system: Canis familiaris; assay: Activity against harris coronary ligation induced ventricular arrhythmia was measured as percent of final sinus complexes after dose mg/kg, iv=2; assay type: functional, Canis lupus familiaris, Cardiac ventricle
[32] = test system: Canis familiaris; assay: Activity against harris coronary ligation induced ventricular arrhythmia was measured as percent of initial sinus complexes after dose mg/kg, iv=2; assay type: functional, Canis lupus familiaris, Cardiac ventricle
[33] = test system: Canis familiaris; assay: Activity against harris coronary ligation induced ventricular arrhythmia was measured as percent of final sinus complexes after dose 2.5 mg/kg, iv; assay type: functional, Canis lupus familiaris, Cardiac ventricle
[34] = test system: Canis familiaris; assay: Activity against harris coronary ligation induced ventricular arrhythmia was measured as percent of final sinus complexes after dose 6.25 mg/kg, po; assay type: functional, Canis lupus familiaris, Cardiac ventricle
[35] = test system: Canis familiaris; assay: Activity against harris coronary ligation induced ventricular arrhythmia was measured as percent of final sinus complexes after dose 25 mg/kg, po; assay type: functional, Canis lupus familiaris, Cardiac ventricle
[36] = test system: Canis familiaris; assay: Activity against harris coronary ligation induced ventricular arrhythmia was measured as percent of initial sinus complexes after dose 2.5 mg/kg, iv; assay type: functional, Canis lupus familiaris, Cardiac ventricle
[37] = test system: Canis familiaris; assay: Activity against harris coronary ligation induced ventricular arrhythmia was measured as percent of initial sinus complexes after dose 6.25 mg/kg, po; assay type: functional, Canis lupus familiaris, Cardiac ventricle
[38] = test system: Canis familiaris; assay: Activity against harris coronary ligation induced ventricular arrhythmia was measured as percent of initial sinus complexes after dose 5 mg/kg, iv; assay type: functional, Canis lupus familiaris, Cardiac ventricle
[39] = test system: Canis familiaris; assay: Activity against harris coronary ligation induced ventricular arrhythmia was measured as percent of initial sinus complexes after dose 12.5 mg/kg, po; assay type: functional, Canis lupus familiaris, Cardiac ventricle
[40] = test system: Canis familiaris; assay: Activity against harris coronary ligation induced ventricular arrhythmia was measured as percent of final sinus complexes after dose 5 mg/kg, iv; assay type: functional, Canis lupus familiaris, Cardiac ventricle
[41] = test system: Canis familiaris; assay: Activity against harris coronary ligation induced ventricular arrhythmia was measured as percent of initial sinus complexes after dose 25 mg/kg, po; assay type: functional, Canis lupus familiaris, Cardiac ventricle
[42] = test system: Canis familiaris; assay: Activity against harris coronary ligation induced ventricular arrhythmia was measured as percent of initial sinus complexes after dose 1 mg/kg iv; assay type: functional, Canis lupus familiaris, Cardiac ventricle
[43] = test system: Canis familiaris; assay: Activity against harris coronary ligation induced ventricular arrhythmia was measured as percent of final sinus complexes after dose 1 mg/kg iv; assay type: functional, Canis lupus familiaris, Cardiac ventricle
[44] = test system: Canis familiaris; assay: Activity against ouabain-induced ventricular arrhythmia was measured as percent of sinus rhythm recovery at the dose of 2 mg/kg iv; assay type: functional, Canis lupus familiaris, Cardiac ventricle
[45] = test system: Canis familiaris; assay: Activity against ouabain-induced ventricular arrhythmia was measured as percent of sinus rhythm recovery at dose of 2.5 mg/kg iv; assay type: functional, Canis lupus familiaris, Cardiac ventricle
[46] = test system: Canis familiaris; assay: Activity against harris coronary ligation induced ventricular arrhythmia was measured as percent of initial sinus complexes after dose mg/kg, iv=6; Inactive; assay type: functional, organism-based; conditions: Canis lupus familiaris; Cardiac ventricle
[47] = test system: Canis familiaris; assay: Activity against harris coronary ligation induced ventricular arrhythmia was measured as percent of final sinus complexes after dose 10 mg/kg, iv; assay type: functional, Canis lupus familiaris, Cardiac ventricle
[48] = test system: Canis familiaris; assay: Activity against harris coronary ligation induced ventricular arrhythmia was measured as percent of initial sinus complexes after dose 10 mg/kg, iv; assay type: functional, Canis lupus familiaris, Cardiac ventricle

CNC(=O)Nc1c(OCCN2CCCC2)c(OC)c2occc2c1OC [CAROCAINIDE]
SRR [1]: 100% | FSC [2]: 95% | FSC [3]: 100% | Duration [4]: 69 min | ISC [5]: 19% and 12% | FSC [6]: 100% | FSC [7]: 81% | FSC [8]: 100% | LD50 [9]: 88 mg/kg | ISC [10]: 18% | FSC [11]: 75% | ISC [12]: 15% | ISC [13]: 33%

COc1c(NC(C)=O)c(OCCN2CCN(C)CC2)c(OC)c2occc12
SRR [14]: 66% | Duration [4]: <30 min | LD50 [15]: 200 mg/kg

CNC(=O)Nc1c(OC)c2c(c(OC)c1OCCN1CCCCC1)OCC2
Duration [4]: <30 min | SRR [16]: 100% | LD50 [9]: 180 mg/kg

CC(C)N(CCC(C(N)=O)(c1ccccc1)c1ccccn1)C(C)C (centres undefined) [DISOPYRAMIDE]
SRR [17]: 100% | FSC [3]: 100% | Duration [4]: 25 min | ISC [18]: 1% | FSC [19]: 100% | Duration [20]: 60 min and 180 min | LD50 [9]: 60 mg/kg | ISC [10]: 19%

C=C[C@H]1CN2CC[C@H]1C[C@@H]2[C@@H](O)c1ccnc2ccc(OC)cc12 [QUINIDINE]
SRR [14]: 50% | Duration [4]: 60 min | FSC [21]: 67% | Duration [20]: >90 min and 120 min and 240 min | ISC [22]: 9% | LD50 [9]: 89 mg/kg | ISC [23]: 5% | ISC [24]: 9% | FSC [25]: 25% and 56%

CNC(=O)Nc1c(OCCN(C)C)c(OC)c2occc2c1OC
ISC [26]: 5% | Duration [4]: 30 min | SRR [27]: 100% | FSC [28]: 20% | LD50 [9]: 100 mg/kg | Duration [29]: 10 min

COc1c(NC(C)=O)c(OCCNC(C)C)c(OC)c2occc12
Duration [4]: <30 min | SRR [30]: 33% | LD50 [9]: 88 mg/kg

CCCN(CCC)CCOc1c(NC(=O)NC)c(OC)c2ccoc2c1OC
SRR [1]: 100% | FSC [31]: 37% | Duration [4]: 45 min | Duration [20]: 5 min | LD50 [9]: 52 mg/kg | ISC [32]: 30%

CNC(=O)Nc1c(OCCN2CCCCC2)c(OC)c2occc2c1OC [MUROCAINIDE]
SRR [1]: 100% | FSC [2]: 90% | FSC [33]: 45% | FSC [34]: 14% | Duration [4]: >60 min | FSC [35]: 98% | ISC [36]: 3% | ISC [37]: 1% | LD50 [9]: 50 mg/kg | ISC [38]: 14% | ISC [39]: 5% | FSC [40]: 85% | ISC [41]: 13%

COc1c(NC(=O)OC(C)C)c(OCCN2CCCCC2)c(OC)c2occc12
Duration [4]: >100 min | SRR [27]: 100% | Duration [20]: 10 min | ISC [42]: 30% | LD50 [9]: 10 mg/kg | FSC [43]: 50%

CNC(=O)Nc1c(OCCN2CCCCC2)cc2occc2c1OC
LD50 [9]: 100 mg/kg | SRR [44]: 100%

COc1c(NC(C)=O)c(OCCN2CCCCC2)c(OC)c2occc12
Duration [4]: >50 min | LD50 [9]: 52 mg/kg | SRR [45]: 100% | ISC [46]: inactive

CNC(=O)Nc1c(OCCN2CCN(C)CC2)c(OC)c2occc2c1OC
SRR [17]: 100% | Duration [4]: 120 min | FSC [47]: 98% | Duration [20]: 30 min and <30 min | LD50 [9]: 145 mg/kg | ISC [38]: 1% | ISC [48]: 18% | FSC [40]: 50%
